From EP2141163A1, “Substituted thiazolidinones, their production and utilisation as medicine” (Bayer Schering Pharma Aktiengesellschaft, priority 2008, dated 2010)

Tests used:
NCI-H460 = test: Proliferation assay (crystal violet staining), NCI-H460; assay type: cell-based, human; conditions: Homo sapiens, 96 h, tumour cell proliferation, 4 days incubation, read-out: Inhibition IC50 [M] (NCI-H460)
Procedure: (§1) Kultivierte humane Tumorzellen (MCF7, […] menschliche Mammakarzinomazellen, bezogen von ATCC HTB22; NCI-H460, menschliche nicht kleinzellige Lungenkarzinomazellen, ATCC HTB-177; DU 145, hormonunabhängige menschliche Prostatakarzinomazellen, ATCC HTB-81; HeLa-MaTu, humane Cervixkarzinomazellen, bezogen von EPO-GmbH, Berlin,) werden in einer Dichte von 5000 (MCF7, DU145) bzw. 3000 (NCI-H460, HeLa-MaTu) Zellen/Messpunkt in einer 96-Loch Multititerplatte in 200 µl des entsprechenden Wachstumsmediums ausplattiert. Nach 24 Stunden werden die Zellen einer Platte (Nullpunkt-Platte) mit Kristallviolett gefärbt (s.u.), während das Medium der anderen Platten durch frisches Kulturmedium (200 µl), dem die Testsubstanzen in verschiedenen Konzentrationen (0 µM, sowie im Bereich 0,01 - 30 µM; die finale Konzentration des Lösungsmittels Dimethylsulfoxid beträgt 0,5%) zugesetzt sind, ersetzt. Die Zellen werden für 4 Tage in Anwesenheit der Testsubstanzen inkubiert. Die Zellproliferation wird durch Färbung der Zellen mit Kristallviolett bestimmt: Die Zellen werden durch Zugabe von 20 µl/Messpunkt einer 11%igen Glutaraldehyd-Lösung 15 min bei Raumtemperatur fixiert. Nach dreimaligem Waschen der fixierten Zellen mit Wasser werden die Platten bei Raumtemperatur getrocknet. Die Zellen werden durch Zugabe von 100 µl/Messpunkt einer 0,1%igen Kristallviolett-Lösung (pH durch Zugabe von Essigsäure auf pH3 eingestellt) gefärbt. Nach dreimaligem Waschen der gefärbten Zellen mit Wasser werden die Platten bei Raumtemperatur getrocknet. Der Farbstoff wird durch Zugabe von 100 µl/Messpunkt einer 10%igen Essigsäure-Lösung gelöst. Die Extinktion wird photometrisch bei einer Wellenlänge von 595 nm bestimmt. Die prozentuale Änderung des Zellwachstums wird durch Normalisierung der Messwerte auf die Extinktionwerte der Nullpunktplatte (=0%) und die Extinktion der unbehandelten (0 µM) Zellen (=100%) berechnet. IC50-Werte werden nach einer 4-Parameterkurvenanpassung mit Hilfe eines Firmeneigenen Computerprogramms berechnet.

PLK-1 = molecular target: T1, PLK-1 (Homo sapiens, UniProt P53350); test: PLK-1 enzyme assay at 10 mM ATP (indirect HTRF assay); assay type: biochemical; conditions: read-out: Inhibition PLK-1 IC50 [M] (10 mM ATP)
T1 construct: Fusionsprotein bestehend aus GST und Plk (Kinase Domäne 33-345; MW 36 kDa, conc 0,8 µg/µl); GST; made in house; host or cells: Hi5 insect cells
Procedure: PLK Enzym-Assay (10 mM ATP)
Für den Kinaseassay wird aus Insektenzellen (Hi5) exprimiertes, durch Glutathion-Sepharose-Affinitätschromatographie und anschließender Gel-filtration (Suerdex 75) gereinigtes rekombinantes Fusionsprotein bestehend aus GST und Plk (Kinase Domäne 33-345; MW 36 kDa, conc 0,8 µg/µl) verwendet. Aliqots hiervon werden in flüssigem Stickstoff weggefroren und bei -80°C gelagert und nach dem Auftauen nur einmal verwendet.
Bei dem verwendeten Assay handelt es sich um einen indirekten HTRF-Assay, bei dem folgende Materialien und Verfahrensweisen zum Einsatz kamen. Als Substrat für die Kinasereaktion wird das biotinylierte Peptid Btn-Ahx-KKLNRTLSFAEPG-Amid x TFA, von Biosyntan, Probennr.: 6178.1 (C-Terminus in Amidform) verwendet. Hierbei handelt es sich um eine artifizielle Sequenz, die von keinem bekannten Protein abgeleitet wurde.
50 nl der in 100% Dimethylsulfoxid (DMSO) gelösten Testverbindungen (Endkonzentrationen : 0 µM und Konzentrationen im Bereich von 0,001 - 20 µM) werden mit 2 µl Enzym Arbeitslösung (0,039 ng/µl Plk-1 im Arbeitspuffer [25 mM MgCl2; 1mM DTT; 50 mM Hepes pH 7,0; 0,01% NP40; 1x Complete; 0,05% BSA] für 30 min vorinkubiert. Anschließend wird die Kinase-Reaktion durch Zugabe von 3 µl Substratlösung [16,7 mM Adenosintriphosphate (ATP) und 1,4 µM Substratpeptid (Biotin-Ttds- KKLNRTLSFAEPG -NH2)] in Arbeitspuffer gestartet, und nach 30 min durch Zugabe einer Abstopp-Lösung (100 mM EDTA, 100 mM Hepes pH 7,5, 800 mM Potassiumfluoride, 0,12% BSA, 0,4 µM SA-XLent (0,05 µM, von CIS bio international, Marcoule, Frankreich), Eu^3+ Cryptate-conjugated Rabbit anti-Mouse IgG (1,5 nM; ein mit Europiumkryptat markierter Anti-Maus-IgG-Antikörper von CIS bio international, Marcoule, Frankreich), 1 nM Anti-phospho-Serine Kinase (ein phospho-spezifischer Antikörper von Upstate Biotechnology, Dundee, Schottland), gestoppt, und bei 4°C über Nacht inkubiert. Danach wird die Menge des phosphorylierten Substratpeptids durch Messung des Resonanzenergietransfers vom Europium-markierten Antikörperkomplex zum Streptavidine-XLent bestimmt. Zu diesem Zweck wird die Fluoreszenzemission bei 620 nm und 665 nm nach Anregung bei 350 nm in einem HTRF-Messgerät, z. B. Rubystar (BMG Labtechnologies, Offenburg, Deutschland) oder Viewlux (Perkin-Elmer), bestimmt. Das Verhältnis der Emissionen bei 665 nm und bei 620 nm wird als Maß für die Menge des phosphorylierten Substratpeptids verwendet. Die Daten werden normalisiert (Enzymreaktion ohne Inhibitor = 0 % Inhibition, alle anderen Assaykomponenten, aber kein Enzym = 100 % Inhibition), und IC50-Werte werden durch einen 4 Parameter-Fit mit einer hauseigenen Software berechnet.

MCF-7 = test: Proliferation assay (crystal violet staining), MCF-7; assay type: cell-based, human; conditions: Homo sapiens, MCF7, 96 h, tumour cell proliferation, 4 days incubation, read-out: Inhibition IC50 [M] (MCF-7)
Procedure: as §1

DU145 = test: Proliferation assay (crystal violet staining), DU145; assay type: cell-based, human; conditions: Homo sapiens, DU-145, 96 h, tumour cell proliferation, 4 days incubation, read-out: Inhibition IC50 [M] (DU145)
Procedure: as §1

T1 sequence (P53350 33-345): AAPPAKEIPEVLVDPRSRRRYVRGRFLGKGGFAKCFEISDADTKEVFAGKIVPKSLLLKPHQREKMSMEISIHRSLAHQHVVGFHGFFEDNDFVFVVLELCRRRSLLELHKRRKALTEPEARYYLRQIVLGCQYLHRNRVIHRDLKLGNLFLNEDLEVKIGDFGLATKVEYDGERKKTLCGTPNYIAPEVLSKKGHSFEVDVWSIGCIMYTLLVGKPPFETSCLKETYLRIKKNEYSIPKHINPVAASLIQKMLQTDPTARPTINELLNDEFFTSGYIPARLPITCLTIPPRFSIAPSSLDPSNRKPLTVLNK

| Structure (SMILES) | IC50 (NCI-H460) [M] | IC50 (PLK-1) [M] | IC50 (MCF-7) [M] | IC50 (DU145) [M] |
| --- | --- | --- | --- | --- |
| CCn1c(=C(C#N)C(=O)NCC#N)sc(=CNc2ccc3ccn(C4CCN(C)CC4)c3c2)c1=O [B04] | 1.4e-07 | 2.9e-09 | 7.2e-08 | 2.9e-08 |
| CCn1c(=O)c(=CNc2ccc3c(c2)c(CCN2CCCC2)cn3C)s/c1=C(/C#N)C(=O)NCC(F)(F)F [B35] | 3.3e-07 | 5.9e-09 | 6.4e-07 | 1.8e-07 |
